In publication PMC11475281, “A Novel Liver Cancer-Selective Histone Deacetylase Inhibitor Is Effective against Hepatocellular Carcinoma and Induces Durable Responses with Immunotherapy” (ACS Pharmacology & Translational Science, 2024):
Where two headings read alike, the source gives them in different places.

What was measured:
[1] = system: GLUT-2; experiment: GLUT-2 uptake experiment (phloretin blockade, MTS); format: cell-based; conditions: African green monkey, VERO cells, with phloretin 25 µM, Pre-treated with 25 μM Ph, read-out: VERO Cell Viability %
Description: (§1) We observed that Ph selectively mitigated the cytotoxicity of STR-V-53 against the Hep-G2 cell line with no apparent effect on the cytotoxicity of SAHA (Figure 2a). […] This matches our expectation because Hep-G2 cells overexpress GLUT-2 while VERO has limited expression of GLUT-2.[26] […]
(§2) Hep-G2 or VERO cells were seeded (2500 to 4,000 counts/well) into 96-well plates, in which each well contains 100 µL media. The cells were cultured overnight in the respective media described in the cell culture section above. On day 2, the cells were treated with 25 µM Phloretin for 24 h. On day 3, 200x stock solutions of STR-V-53 and SAHA were used to prepare 2x treatment solution by adding 1% stock solution in the media. Then, without removal of the media in 96-well plates, the same volumes of drug as the media were added directly to the wells with gentle pipetting to reach 1x drug solution with 25 µM Ph. After another 72 h, the media were removed, and new media (100 µL) added to the wells. MTS solution (20 µL) was added to each well. After 2.5-4 h incubation, the plates were read using a multiplate reader at 490 nm. The data were processed using GraphPad Prism 8. […]

[2] = GLUT-2 uptake experiment (phloretin blockade, MTS); format: cell-based; conditions: African green monkey, VERO cells, No addition of Ph, read-out: VERO Cell Viability %
Description: as §1, §2

[3] = system: Hep-G2 cells; experiment: Immunoblotting of PD-L1 and PD-1 expression; format: cell-based, human; conditions: 24 h, SAHA 5 and 10 μM, STR-V-53 10 and 20 μM
Description: (§3) Figure 3 Effects of STR-V-53 on intracellular markers of HDAC inhibition, antitumor immune response, and apoptosis. (a) STR-V-53 upregulates the levels of acetylated H4 and tubulin in Hep-G2 cells. Hep-G2 cells were treated with DMSO or 0.1% DMSO solution of SAHA (1.25 μM) and STR-V-53 (1.25 μM, 2.5 μM). Cells were treated for 5 h before lysis. Data are from two independent experiments. (b) STR-V-53 upregulates PD-L1 and downregulates PD-1 expressions in Hep-G2 cells. Cells were treated with DMSO or 0.1% DMSO solution of SAHA (5 μM and 10 μM) and STR-V-53 (10 and 20 μM) for 24 h. (c) STR-V-53 and SAHA caused upregulation of the levels of CD54 in the Hep-G2 cell line. Cells were treated with DMSO or 0.1% DMSO solution of SAHA (5 and 10 μM) and STR-V-53 (5, 10, and 20 μM) for 24 h. […] Cells were treated with DMSO or 0.1% DMSO solution of SAHA (5 μM) and STR-V-53 (10 and 20 μM).
One of the consequences of histone deacetylase inhibition is the alteration of tumor immunogenicity in favor of enhanced antitumor immune responses.[28],[29] Specifically, HDACi robustly upregulates PD-L1 in human and murine cell lines and patient tumors.[30],[31] To investigate the effects of our glycosylated HDACi on immune checkpoint molecules, we used immunoblotting to probe for the expression levels of PD-L1 and PD-1 in Hep-G2 cells incubated with lead compound STR-V-53 for 24 h. We used SAHA and DMSO as positive and negative controls, respectively.

[4] = system: Hep-G2 cells; experiment: Immunoblotting of CD54 (ICAM-1) expression; format: cell-based, human; conditions: 24 h, STR-V-53 at IC50 and 2× IC50
Description: as §3
HDACi regulates the expression levels of other tumor antigens such as CD40, CD54 (ICAM-1), CD80, and CD86 in tumor cells.[32]−[35] More specifically, the repression of CD54 expression is another strategy tumors use to escape the immune response.[36] […] To investigate the effect of our glycosylated HDACi on the expression of CD54, we incubated Hep-G2 cells with STR-V-53 at IC50 and 2× IC50 for 24 h. We used immunoblotting to determine the effect of this treatment on CD54 expression. […]

[5] = target: T1, HDAC8 (Homo sapiens, UniProt Q9BY41); experiment: HDAC isoform inhibition (BPS Bioscience)
T1 sequence (Q9BY41 1-377): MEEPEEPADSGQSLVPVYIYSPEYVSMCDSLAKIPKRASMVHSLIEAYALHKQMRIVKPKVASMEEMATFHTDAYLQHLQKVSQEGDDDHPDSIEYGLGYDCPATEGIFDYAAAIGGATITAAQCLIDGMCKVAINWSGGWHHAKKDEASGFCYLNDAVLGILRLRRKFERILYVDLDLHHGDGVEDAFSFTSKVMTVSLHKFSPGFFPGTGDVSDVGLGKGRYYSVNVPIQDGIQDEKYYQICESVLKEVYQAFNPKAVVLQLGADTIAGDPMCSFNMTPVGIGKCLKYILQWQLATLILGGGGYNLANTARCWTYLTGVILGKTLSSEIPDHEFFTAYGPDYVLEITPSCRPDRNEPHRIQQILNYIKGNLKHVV

Compound `O=C(CCCCCCC(=O)Nc1ccccc1)NO` [SAHA, vorinostat, reference compound] has a viability at 72 h, 6.5 µM ([1]; 6.5 μM) of 87.2%, a viability at 72 h, 12.5 µM ([1]; 12.5 μM) of 7.5% and a viability at 72 h, 6.5 µM ([2]; 6.5 μM) of 97.7%. For the same compound, the viability at 72 h, 12.5 µM ([2]; 12.5 μM) was 17.1%, the PD-1 expression level [3] was “downregulate” and the PD-L1 expression level [3] was “upregulate”. For the same compound, the CD54 expression [4] was “upregulated”.
Compound `O=C(CCCCCCn1cc(-c2ccc(O[C@@H]3O[C@H](CO)[C@@H](O)[C@H](O)[C@H]3O)cc2)nn1)NO` [STR-I-195] has an IC50 ([5]; read-out: HDAC8 IC50, Table S1) of 464 nM.
`O=C(CCCCCCn1cc(-c2ccc(O[C@H]3O[C@H](CO)[C@@H](O)[C@H](O)[C@H]3O)cc2)nn1)NO` [STR-V-53] showed a viability at 72 h, 75 µM ([1]; 75μM) of 100%, a viability at 72 h, 100 µM ([1]; 100μM) of 75.9% and a viability at 72 h, 75 µM ([2]; 75μM) of 98.4%. The viability at 72 h, 100 µM ([2]; 100μM) was 77.8%, the IC50 [5] was 843 nM and the PD-1 expression level [3] was “downregulate”. The PD-L1 expression level [3] was “upregulate” and the CD54 expression [4] was “upregulated”.
In the case of `O=C(CCCCCCn1cc(-c2ccc3cc(O[C@H]4O[C@H](CO)[C@@H](O)[C@H](O)[C@H]4O)ccc3c2)nn1)NO` [STR-V-114], the IC50 ([5]; read-out: HDAC8 IC50, Table S1) is reported as 2130 nM.
